Results published in patent publication US8802597B2, “Herbicidal pyrimidines” (E I du Pont de Nemours and Company, priority 2003, dated 2014).
Where two headings read alike, the source gives them in different places.

Tests used:
Assay in all cases: Test C pre/postemergence
Assay type in all cases: in vivo
[1] = test system: common ragweed (Ambrosia elatior); conditions: Ambrosia artemisiifolia; for pest or weed control at 62 g/ha: 62 g ai/ha; for pest or weed control at 125 g/ha: 125 g ai/ha; for pest or weed control at 250 g/ha: 250 g ai/ha; for pest or weed control at 500 g/ha: 500 g ai/ha
How it was run: (§1)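 Seeds sown and sprayed preemergence with test compound in non-phytotoxic solvent containing surfactant; postemergence sprays, same formulation, went onto plants 2 to 18 cm tall (1- to 4-leaf stage). Plants held in greenhouse 12 to 14 days, then visually rated against untreated controls on a 0–100 scale (0 no effect, 100 complete control).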

[2] = test system: common (oilseed) sunflower (Helianthus annuus); conditions: Helianthus annuus, pre-emergence, Preemergence, read-out: Plant response rating, Sunflower
How it was run: as §1

[3] = test system: goosegrass (Eleusine indica); conditions: Eleusine indica; for pest or weed control at 62 g/ha: 62 g ai/ha; for pest or weed control at 125 g/ha: 125 g ai/ha; for pest or weed control at 250 g/ha: 250 g ai/ha; for pest or weed control at 500 g/ha: 500 g ai/ha
How it was run: as §1

[4] = test system: cocklebur (Xanthium strumarium); conditions: Xanthium strumarium; for pest or weed control at 62 g/ha: 62 g ai/ha; for pest or weed control at 125 g/ha: 125 g ai/ha; for pest or weed control at 250 g/ha: 250 g ai/ha; for pest or weed control at 500 g/ha: 500 g ai/ha
How it was run: as §1

[5] = test system: bermudagrass (Cynodon dactylon); conditions: Cynodon dactylon; for pest or weed control at 62 g/ha: 62 g ai/ha; for pest or weed control at 125 g/ha: 125 g ai/ha; for pest or weed control at 125 g/ha / pest or weed control at 250 g/ha / pest or weed control at 500 g/ha: scale 0 to 100; for pest or weed control at 250 g/ha: 250 g ai/ha; for pest or weed control at 500 g/ha: 500 g ai/ha
How it was run: as §1

[6] = test system: pigweed (Amaranthus retroflexus); conditions: Amaranthus retroflexus; for pest or weed control at 62 g/ha: 62 g ai/ha; for pest or weed control at 125 g/ha: 125 g ai/ha; for pest or weed control at 250 g/ha: 250 g ai/ha; for pest or weed control at 500 g/ha: 500 g ai/ha
How it was run: as §1

[7] = post-emergence, Postemergence, scale 0 to 100 (0 no effect, 100 complete control), read-out: Ragweed plant response rating
[8] = post-emergence, Postemergence, scale 0 to 100, read-out: Plant response rating, Ragweed
[9] = pre-emergence, Preemergence, scale 0 to 100, read-out: Plant response rating, Ragweed
[10] = post-emergence, Postemergence, scale 0 to 100 (0 no effect, 100 complete control), read-out: Goosegrass plant response rating
[11] = post-emergence, Postemergence, scale 0 to 100, read-out: Plant response rating, Goosegrass
[12] = pre-emergence, Preemergence, scale 0 to 100, read-out: Plant response rating, Goosegrass
[13] = post-emergence, Postemergence, scale 0 to 100 (0 no effect, 100 complete control), read-out: Cocklebur plant response rating
[14] = post-emergence, Postemergence, scale 0 to 100, read-out: Plant response rating, Cocklebur
[15] = pre-emergence, Preemergence, scale 0 to 100, read-out: Plant response rating, Cocklebur
[16] = post-emergence, Postemergence, read-out: Plant response rating, Bermudagrass
[17] = pre-emergence, Preemergence, read-out: Plant response rating, Bermudagrass
[18] = post-emergence, Postemergence, scale 0 to 100 (0 no effect, 100 complete control), read-out: Pigweed plant response rating
[19] = post-emergence, Postemergence, scale 0 to 100, read-out: Plant response rating, Pigweed
[20] = pre-emergence, Preemergence, scale 0 to 100, read-out: Plant response rating, Pigweed

Work on `CNc1nc(C2CC2)nc(C(=O)OC)c1Br` [Compound 5] yielded a pest or weed control at 62 g/ha [1, 7] of 90%, a pest or weed control at 125 g/ha [1, 7] of 95% and a pest or weed control at 250 g/ha [1, 8] of 95%. It also gave a pest or weed control at 500 g/ha [1, 8] of 100%, a pest or weed control at 62 g/ha ([1]; pre-emergence, Preemergence, scale 0 to 100, 0 no effect, 100 complete control, read-out: Plant response rating, Ragweed) of 85% and a pest or weed control at 125 g/ha [1, 9] of 90%. The pest or weed control at 250 g/ha [1, 9] was 100%, the pest or weed control at 500 g/ha [1, 9] was 100% and the pest or weed control at 62 g/ha ([2]; 62 g ai/ha, scale 0 to 100, 0 no effect, 100 complete control) was 60%. For the same molecule, the pest or weed control at 125 g/ha ([2]; 125 g ai/ha, scale 0 to 100) was 90%, the pest or weed control at 250 g/ha ([2]; 250 g ai/ha, scale 0 to 100) was 100% and the pest or weed control at 500 g/ha ([2]; 500 g ai/ha, scale 0 to 100) was 100%. The pest or weed control at 62 g/ha [3, 10] was 0%, the pest or weed control at 125 g/ha [3, 10] was 5% and the pest or weed control at 250 g/ha [3, 11] was 40%. It also gave a pest or weed control at 500 g/ha [3, 11] of 50%, a pest or weed control at 62 g/ha ([3]; pre-emergence, Preemergence, scale 0 to 100, 0 no effect, 100 complete control, read-out: Plant response rating, Goosegrass) of 0% and a pest or weed control at 125 g/ha [3, 12] of 0%. For the same molecule, the pest or weed control at 250 g/ha [3, 12] was 0%, the pest or weed control at 500 g/ha [3, 12] was 40% and the pest or weed control at 62 g/ha [4, 13] was 80%. The pest or weed control at 125 g/ha [4, 13] was 95%, the pest or weed control at 250 g/ha [4, 14] was 100% and the pest or weed control at 500 g/ha [4, 14] was 100%. The pest or weed control at 62 g/ha ([4]; pre-emergence, Preemergence, scale 0 to 100, 0 no effect, 100 complete control, read-out: Plant response rating, Cocklebur) was 10%, the pest or weed control at 125 g/ha [4, 15] was 90% and the pest or weed control at 250 g/ha [4, 15] was 100%. The pest or weed control at 500 g/ha [4, 15] was 100%, the pest or weed control at 62 g/ha ([5]; post-emergence, Postemergence, scale 0 to 100 (0 no effect, 100 complete control), read-out: Bermudagrass plant response rating) was 5% and the pest or weed control at 125 g/ha [5, 16] was 50%. For the same molecule, the pest or weed control at 250 g/ha [5, 16] was 70%, the pest or weed control at 500 g/ha [5, 16] was 80% and the pest or weed control at 62 g/ha ([5]; pre-emergence, Preemergence, scale 0 to 100, 0 no effect, 100 complete control, read-out: Plant response rating, Bermudagrass) was 0%. The pest or weed control at 125 g/ha [5, 17] was 0%, the pest or weed control at 250 g/ha [5, 17] was 30% and the pest or weed control at 500 g/ha [5, 17] was 70%. The pest or weed control at 62 g/ha [6, 18] was 85%, the pest or weed control at 125 g/ha [6, 18] was 90% and the pest or weed control at 250 g/ha [6, 19] was 90%. It also gave a pest or weed control at 500 g/ha [6, 19] of 100%, a pest or weed control at 62 g/ha ([6]; pre-emergence, Preemergence, scale 0 to 100, 0 no effect, 100 complete control, read-out: Plant response rating, Pigweed) of 60% and a pest or weed control at 125 g/ha [6, 20] of 90%. For the same molecule, the pest or weed control at 250 g/ha [6, 20] was 100% and the pest or weed control at 500 g/ha [6, 20] was 100%.
